Results taken from patent publication US20080214577A1, “New Compounds 320” (AstraZeneca AB, priority 2006, published 2008).

Target: T1, human β-Secretase (Homo sapiens, UniProt P56817)
T1 construct: The soluble part of the human β-Secretase (AA 1-AA 460) was cloned; made in house
Test: TR-FRET assay
Assay type: biochemical
Conditions: soluble human β-Secretase (sBACE-Fc), substrate (Europium)[…](Qsy7) 100 nM, pH 4.5
Method: The enzyme used in the IGEN Cleavage-, Fluorescent-, TR-FRET- and BiaCore assays is described as follows: The soluble part of the human β-Secretase (AA 1-AA 460) was cloned into the […]-Fc10-1-IRES-GFP-neoK mammalian expression vector. The gene was fused to the Fc domain of IgG1 (affinity tag) and stably cloned into HEK 293 cells. Purified sBACE-Fc is stored in Tris buffer, pH 9.2 and has a purity of 95%. TR-FRET Assay Enzyme was diluted to 6 μg/mL and the substrate ([…]7) to 200 nM in reaction buffer (NaAcetate, chaps, triton x-100, EDTA pH 4.5). Compounds were diluted to the desired concentration in dimethyl sulfoxide (final dimethyl sulfoxide concentration in assay is 5%). […] Enzyme (9 μL) and 1 μL of compound in dimethyl sulfoxide was added to the plate, mixed and pre-incubated for 10 min. Substrate (10 μL) was added and the reaction proceeded in the dark for 15 min at RT. The reaction was stopped with the addition of 7 μL NaAcetate, pH 9.

T1 sequence (P56817 22-460): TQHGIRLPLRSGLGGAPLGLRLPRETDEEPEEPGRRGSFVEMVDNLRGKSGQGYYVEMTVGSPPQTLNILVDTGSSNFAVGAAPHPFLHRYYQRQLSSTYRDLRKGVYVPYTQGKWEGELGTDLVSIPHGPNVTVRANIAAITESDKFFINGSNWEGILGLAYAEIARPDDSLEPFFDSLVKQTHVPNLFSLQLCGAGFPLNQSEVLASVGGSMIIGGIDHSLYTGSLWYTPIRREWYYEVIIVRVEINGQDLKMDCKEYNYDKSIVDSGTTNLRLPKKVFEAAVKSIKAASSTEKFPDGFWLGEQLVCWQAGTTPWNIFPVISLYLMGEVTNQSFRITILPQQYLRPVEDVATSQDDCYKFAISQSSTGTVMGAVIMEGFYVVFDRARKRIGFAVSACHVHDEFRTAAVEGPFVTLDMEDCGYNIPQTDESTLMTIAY

For `COc1ccc(C2(c3cccc(-c4cncnc4)c3)N=C(N)N3CC(S(C)(=O)=O)CN=C32)cc1` (mixture of isomers) [Example 28, 8-(4-Methoxyphenyl)-3-(methylsulfonyl)-8-(3-pyrimidin-5-ylphenyl)-2,3,4,8-tetrahydroimidazol[1,5-a]pyrimidin-6-amine 2.0 acetate], the IC50 was 253 nM.

Compound `COc1ccc(C2(c3cccc(-c4cncnc4)c3)N=C(N)N3CC(O)CN=C32)cc1` (mixture of isomers) [Example 30, 6-Amino-8-(4-methoxyphenyl)-8-(3-pyrimidin-5-ylphenyl)-2,3,4,8-tetrahydroimidazo[1,5-a]pyrimidin-3-ol] has an IC50 of 119 nM.

`COc1ccc(C2(c3cccc(-c4cncnc4)c3)N=C(N)N3CC(OC)CN=C32)cc1` (mixture of isomers) [Example 32, 3-Methoxy-8-(4-methoxyphenyl)-8-(3-pyrimidin-5-ylphenyl)-2,3,4,8-tetrahydroimidazo[1,5-a]pyrimidin-6-amine] showed an IC50 of 571 nM.

Work on `COc1ccc(C2(c3cccc(-c4cncnc4)c3)N=C(N)N3CC(F)CN=C32)cc1` (mixture of isomers) [Example 50, 3-Fluoro-8-(4-methoxyphenyl)-8-(3-pyrimidin-5-ylphenyl)-2,3,4,8-tetrahydroimidazo[1,5-a]pyrimidin-6-amine 4.0 acetate] yielded an IC50 of 59 nM.

With `COc1ccc(C2(c3cccc(-c4cccnc4)c3)N=C(N)N3CC(F)(F)CN=C32)cc1` (centres unmarked) [Example 40, 3,3-Difluoro-8-(4-methoxyphenyl)-8-(3-pyridin-3-ylphenyl)-2,3,4,8-tetrahydroimidazo[1,5-a]pyrimidin-6-amine 0.75 acetate] the IC50 was 76 nM.

For `COc1ccc(C2(c3cccc(-c4cncc(OC)c4)c3)N=C(N)N3CC(F)(F)CN=C32)cc1` (centres unmarked) [Example 41, 3,3-Difluoro-8-(4-methoxyphenal)-8-[3-(5-methoxypyridin-3-yl)phenyl]-2,3,4,8-tetrahydroimidazo[1,5-a]pyrimidin-6-amine 0.75 acetate], the IC50 was 30 nM.

In the case of `COc1ccc(C2(c3cccc(-c4cccnc4F)c3)N=C(N)N3CC(F)(F)CN=C32)cc1` (centres unmarked) [Example 42, 3,3-Difluoro-8-[3-(2-fluoropyridin-3-yl)phenyl]-8-(4-methoxyphenyl)-2,3,48-tetrahydroimidazo[1,5-a]pyrimidin-6-amine 0.75 acetate], the IC50 is reported as 29 nM.

Work on `COc1cncc(-c2cccc(C3(c4ccncc4)N=C(N)N4CC(F)(F)CN=C43)c2)c1` (centres unmarked) [Example 43, 3,3-Difluoro-8-[3-(5-methoxypyridin-3-yl)phenyl]-8-pyridin-4-yl-2,3,4,8-tetrahydroimidazo[1,5-a]pyrimidin-6-amine acetate] yielded an IC50 of 41 nM.

With `NC1=NC(c2ccncc2)(c2cccc(-c3cccnc3F)c2)C2=NCC(F)(F)CN12` (centres unmarked) [Example 44, 3,3-Difluoro-8-[3-(2-fluoropyridin-3-yl)phenyl]-8-pyridin-4-yl-2,3,4,8-tetrahydroimidazo[1,5-a]pyrimidin-6-amine 0.75 acetate] the IC50 was 120 nM.

With `NC1=NC(c2ccncc2)(c2cccc(-c3cncc(F)c3)c2)C2=NCC(F)(F)CN12` (centres unmarked) [Example 47, 3,3-Difluoro-8-[3-(5-fluoropyridin-3-yl)phenyl]-8-pyridin-4-yl-2,3,4,8-tetrahydroimidazo[1,5-a]pyrimidin-6-amine acetate] the IC50 was 59 nM.

`CN(C)C(=O)c1cccc(C2(c3cccc(-c4cccnc4F)c3)N=C(N)N3CC(F)(F)CN=C32)c1` (centres unmarked) [Example 69, 3-{6-Amino-3,3-difluoro-8-[3-(2-fluoropyridin-3-yl)phenyl]-2,3,4,8-tetrahydroimidazo[1,5-a]pyrimidin-8-yl}-N,N-dimethylbenzamide] showed an IC50 of 2300 nM.

`CN(C)C(=O)c1ccc(C2(c3cccc(-c4cccnc4F)c3)N=C(N)N3CC(F)(F)CN=C32)cc1` (centres unmarked) [Example 70, 4-{6-Amino-3,3-difluoro-8-[3-(2-fluoropyridin-3-yl)phenyl]-2,3,4,8-tetrahydroimidazo[1,5-a]pyrimidin-8-yl}-N,N-dimethylbenzamide] showed an IC50 of 2100 nM.

With `COc1ccc(C2(c3ccc(F)c(-c4cccnc4F)c3)N=C(N)N3CC(F)(F)CN=C32)cc1C` (centres unmarked) [Example 87, 3,3-Difluoro-8-(4-fluoro-3-(2-fluoropyridin-3-yl)phenyl)-8-(4-methoxy-3-methylphenyl)-2,3,4,8-tetrahydroimidazo[1,5-a]pyrimidin-6-amine acetate] the IC50 was 41 nM.

`COc1ccc(C2(c3ccc(F)c(-c4cncnc4)c3)N=C(N)N3CC(F)(F)CN=C32)cc1C` (centres unmarked) [Example 88, 3,3-Difluoro-8-(4-fluoro-3-(pyrimidin-5-yl)phenyl)-8-(4-methoxy-3-methylphenyl)-2,3,48-tetrahydroimidazo[1,5-a]pyrimidin-6-amine acetate] was tested, and the IC50 was 92 nM.
